Measurements reported in patent publication US10670605B2, “Cysteine reactive probes and uses thereof” (The Scripps Research Institute, priority 2015, dated 2020).

Columns and labels:
Experiment in all cases: Competitive isoTOP-ABPP in situ (fragment-treated cells)
Format in all cases: cell-based
[1] = target: cysteines in MDA-MB-231 and Ramos cells (Homo sapiens, UniProt P35658); details: 200 μM, insitu
[2] = target: T1, cysteines in MDA-MB-231 and Ramos cells (Homo sapiens, UniProt Q13158); details: 200 μM, insitu
T1 sequence (Q13158 1-208): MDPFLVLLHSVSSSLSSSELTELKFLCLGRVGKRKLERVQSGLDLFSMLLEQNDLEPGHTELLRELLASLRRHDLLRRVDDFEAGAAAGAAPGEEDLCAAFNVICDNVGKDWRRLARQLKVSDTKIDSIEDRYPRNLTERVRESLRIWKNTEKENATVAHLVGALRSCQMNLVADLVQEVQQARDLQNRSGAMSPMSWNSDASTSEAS

[3] = target: cysteines in MDA-MB-231 and Ramos cells (Homo sapiens, UniProt Q13630); details: 200 μM, insitu
Chain of cysteines in MDA-MB-231 and Ramos cells (Homo sapiens, UniProt Q13630) (Q13630 whole entry): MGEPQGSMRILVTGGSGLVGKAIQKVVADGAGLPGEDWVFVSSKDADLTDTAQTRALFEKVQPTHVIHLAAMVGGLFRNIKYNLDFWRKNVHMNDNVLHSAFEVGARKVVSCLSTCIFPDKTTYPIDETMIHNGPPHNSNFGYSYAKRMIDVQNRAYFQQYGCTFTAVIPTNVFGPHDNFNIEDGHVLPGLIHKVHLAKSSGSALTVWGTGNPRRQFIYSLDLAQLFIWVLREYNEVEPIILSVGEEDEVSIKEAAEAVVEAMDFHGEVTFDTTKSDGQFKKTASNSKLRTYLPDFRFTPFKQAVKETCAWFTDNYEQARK

[4] = target: T2, cysteines in MDA-MB-231 and Ramos cells (Homo sapiens, UniProt Q86YH6); details: 200 μM, insitu
T2 sequence (Q86YH6 1-399): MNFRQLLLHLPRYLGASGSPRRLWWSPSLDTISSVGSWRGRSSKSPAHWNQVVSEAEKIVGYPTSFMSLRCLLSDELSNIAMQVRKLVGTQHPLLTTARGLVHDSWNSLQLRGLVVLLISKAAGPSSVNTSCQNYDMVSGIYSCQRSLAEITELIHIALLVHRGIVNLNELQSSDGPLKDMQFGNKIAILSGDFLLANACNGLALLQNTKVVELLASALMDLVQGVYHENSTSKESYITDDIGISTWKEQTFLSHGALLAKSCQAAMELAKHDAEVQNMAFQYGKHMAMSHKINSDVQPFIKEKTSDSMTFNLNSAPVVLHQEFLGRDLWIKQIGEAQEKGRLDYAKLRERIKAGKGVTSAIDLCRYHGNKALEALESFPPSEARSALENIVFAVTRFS

[5] = target: T3, cysteines in MDA-MB-231 and Ramos cells (Homo sapiens, UniProt Q96F86); details: 200 μM, insitu
T3 sequence (Q96F86 1-508): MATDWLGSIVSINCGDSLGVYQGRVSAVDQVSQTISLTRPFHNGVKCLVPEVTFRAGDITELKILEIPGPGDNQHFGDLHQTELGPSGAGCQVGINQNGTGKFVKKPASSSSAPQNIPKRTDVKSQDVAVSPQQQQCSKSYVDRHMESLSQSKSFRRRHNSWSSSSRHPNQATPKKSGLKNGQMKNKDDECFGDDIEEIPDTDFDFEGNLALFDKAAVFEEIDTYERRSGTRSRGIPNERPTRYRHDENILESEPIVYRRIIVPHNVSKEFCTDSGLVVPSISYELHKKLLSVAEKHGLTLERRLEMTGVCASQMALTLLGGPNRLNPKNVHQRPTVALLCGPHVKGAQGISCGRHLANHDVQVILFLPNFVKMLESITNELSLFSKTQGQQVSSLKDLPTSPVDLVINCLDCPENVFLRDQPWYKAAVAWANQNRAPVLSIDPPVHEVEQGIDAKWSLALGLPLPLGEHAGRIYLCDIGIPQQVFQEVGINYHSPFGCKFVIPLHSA

[6] = target: T4, cysteines in MDA-MB-231 and Ramos cells (Homo sapiens, UniProt Q9Y570); details: 200 μM, insitu
T4 sequence (Q9Y570 1-386): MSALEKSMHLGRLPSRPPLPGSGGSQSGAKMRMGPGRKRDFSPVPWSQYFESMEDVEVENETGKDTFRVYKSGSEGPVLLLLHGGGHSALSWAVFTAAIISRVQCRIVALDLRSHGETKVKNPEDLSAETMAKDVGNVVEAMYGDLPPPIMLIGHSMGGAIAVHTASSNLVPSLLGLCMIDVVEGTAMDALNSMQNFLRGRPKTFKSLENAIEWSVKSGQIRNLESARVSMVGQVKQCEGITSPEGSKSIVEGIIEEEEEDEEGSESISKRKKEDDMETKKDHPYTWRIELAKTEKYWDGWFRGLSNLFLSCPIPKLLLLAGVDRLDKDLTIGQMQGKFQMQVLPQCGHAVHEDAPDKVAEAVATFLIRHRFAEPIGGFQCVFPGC

[7] = target: cysteines in MDA-MB-231 and Ramos cells (Homo sapiens, UniProt P07858); details: 200 μM, insitu, 231
[8] = target: cysteines in MDA-MB-231 and Ramos cells (Homo sapiens, UniProt P22061); details: 200 μM, insitu
Chain of cysteines in MDA-MB-231 and Ramos cells (Homo sapiens, UniProt P22061) (P22061 whole entry): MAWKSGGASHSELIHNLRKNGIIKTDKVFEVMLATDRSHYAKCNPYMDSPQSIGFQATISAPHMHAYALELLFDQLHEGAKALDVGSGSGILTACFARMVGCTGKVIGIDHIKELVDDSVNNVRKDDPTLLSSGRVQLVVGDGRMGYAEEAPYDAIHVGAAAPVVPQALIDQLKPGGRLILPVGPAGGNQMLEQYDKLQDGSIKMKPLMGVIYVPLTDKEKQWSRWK

[9] = target: cysteines in MDA-MB-231 and Ramos cells (Homo sapiens, UniProt Q6XZF7); details: 200 μM, insitu
Chain of cysteines in MDA-MB-231 and Ramos cells (Homo sapiens, UniProt Q6XZF7) (Q6XZF7 whole entry): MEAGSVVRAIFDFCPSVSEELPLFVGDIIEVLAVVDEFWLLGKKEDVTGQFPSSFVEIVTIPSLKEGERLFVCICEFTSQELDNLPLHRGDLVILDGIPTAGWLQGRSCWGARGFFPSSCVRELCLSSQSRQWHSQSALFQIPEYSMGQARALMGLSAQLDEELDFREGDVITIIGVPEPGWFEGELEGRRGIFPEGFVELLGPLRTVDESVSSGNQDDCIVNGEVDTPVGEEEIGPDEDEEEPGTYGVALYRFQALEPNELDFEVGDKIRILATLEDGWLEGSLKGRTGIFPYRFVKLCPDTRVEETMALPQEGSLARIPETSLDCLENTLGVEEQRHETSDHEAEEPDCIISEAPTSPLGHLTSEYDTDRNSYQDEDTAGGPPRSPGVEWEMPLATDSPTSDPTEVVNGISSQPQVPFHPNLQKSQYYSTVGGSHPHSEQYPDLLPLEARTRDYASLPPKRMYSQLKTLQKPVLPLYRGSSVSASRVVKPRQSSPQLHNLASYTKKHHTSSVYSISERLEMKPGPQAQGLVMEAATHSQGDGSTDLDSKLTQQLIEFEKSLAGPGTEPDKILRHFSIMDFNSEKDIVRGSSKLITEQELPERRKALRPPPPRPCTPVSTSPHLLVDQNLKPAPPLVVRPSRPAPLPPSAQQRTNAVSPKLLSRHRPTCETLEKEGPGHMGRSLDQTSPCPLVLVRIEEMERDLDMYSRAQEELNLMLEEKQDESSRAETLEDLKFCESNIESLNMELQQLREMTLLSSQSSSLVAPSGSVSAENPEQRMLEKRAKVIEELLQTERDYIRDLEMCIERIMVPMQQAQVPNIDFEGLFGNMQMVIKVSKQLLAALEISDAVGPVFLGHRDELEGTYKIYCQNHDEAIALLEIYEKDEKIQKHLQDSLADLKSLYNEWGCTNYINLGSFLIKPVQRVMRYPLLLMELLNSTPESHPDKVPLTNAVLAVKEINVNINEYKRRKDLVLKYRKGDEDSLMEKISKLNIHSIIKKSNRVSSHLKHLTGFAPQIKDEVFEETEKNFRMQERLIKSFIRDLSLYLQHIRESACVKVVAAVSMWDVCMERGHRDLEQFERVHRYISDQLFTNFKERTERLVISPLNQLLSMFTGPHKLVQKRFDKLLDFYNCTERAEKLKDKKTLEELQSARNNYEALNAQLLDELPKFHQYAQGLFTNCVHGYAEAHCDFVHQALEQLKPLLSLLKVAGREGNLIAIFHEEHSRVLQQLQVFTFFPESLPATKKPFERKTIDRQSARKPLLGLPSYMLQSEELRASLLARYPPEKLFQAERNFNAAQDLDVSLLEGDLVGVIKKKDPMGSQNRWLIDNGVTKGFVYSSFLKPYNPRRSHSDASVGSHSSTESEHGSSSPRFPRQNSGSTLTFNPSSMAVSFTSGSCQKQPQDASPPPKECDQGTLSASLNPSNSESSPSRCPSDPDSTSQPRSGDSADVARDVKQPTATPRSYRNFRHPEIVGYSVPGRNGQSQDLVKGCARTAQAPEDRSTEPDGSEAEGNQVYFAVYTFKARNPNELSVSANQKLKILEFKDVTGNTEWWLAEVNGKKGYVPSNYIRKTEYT

[10] = target: cysteines in MDA-MB-231 and Ramos cells (Homo sapiens, UniProt Q8NBS9); details: 200 μM, insitu
Chain of cysteines in MDA-MB-231 and Ramos cells (Homo sapiens, UniProt Q8NBS9) (Q8NBS9 33-432): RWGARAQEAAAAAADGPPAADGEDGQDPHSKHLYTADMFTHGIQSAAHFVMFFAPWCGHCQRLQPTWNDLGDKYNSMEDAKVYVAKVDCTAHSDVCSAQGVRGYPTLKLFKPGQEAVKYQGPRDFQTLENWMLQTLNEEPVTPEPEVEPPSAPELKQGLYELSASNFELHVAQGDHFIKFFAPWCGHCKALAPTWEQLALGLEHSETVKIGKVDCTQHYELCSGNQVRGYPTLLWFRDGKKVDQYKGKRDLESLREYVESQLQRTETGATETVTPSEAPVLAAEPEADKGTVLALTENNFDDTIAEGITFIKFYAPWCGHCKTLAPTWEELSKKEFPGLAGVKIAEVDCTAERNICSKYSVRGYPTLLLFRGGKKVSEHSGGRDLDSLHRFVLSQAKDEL

[11] = target: cysteines in MDA-MB-231 and Ramos cells (Homo sapiens, UniProt Q9Y3D2); details: 200 μM, insitu, 231
Chain of cysteines in MDA-MB-231 and Ramos cells (Homo sapiens, UniProt Q9Y3D2) (Q9Y3D2 21-182): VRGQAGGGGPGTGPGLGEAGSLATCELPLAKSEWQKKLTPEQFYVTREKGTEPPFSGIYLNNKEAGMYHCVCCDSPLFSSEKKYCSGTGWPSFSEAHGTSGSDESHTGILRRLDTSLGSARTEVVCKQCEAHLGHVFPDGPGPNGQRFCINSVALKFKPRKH

[12] = target: cysteines in MDA-MB-231 and Ramos cells (Homo sapiens, UniProt Q9Y6G9); details: 200 μM, insitu

Chain of cysteines in MDA-MB-231 and Ramos cells (Homo sapiens, UniProt P35658) (P35658 whole entry): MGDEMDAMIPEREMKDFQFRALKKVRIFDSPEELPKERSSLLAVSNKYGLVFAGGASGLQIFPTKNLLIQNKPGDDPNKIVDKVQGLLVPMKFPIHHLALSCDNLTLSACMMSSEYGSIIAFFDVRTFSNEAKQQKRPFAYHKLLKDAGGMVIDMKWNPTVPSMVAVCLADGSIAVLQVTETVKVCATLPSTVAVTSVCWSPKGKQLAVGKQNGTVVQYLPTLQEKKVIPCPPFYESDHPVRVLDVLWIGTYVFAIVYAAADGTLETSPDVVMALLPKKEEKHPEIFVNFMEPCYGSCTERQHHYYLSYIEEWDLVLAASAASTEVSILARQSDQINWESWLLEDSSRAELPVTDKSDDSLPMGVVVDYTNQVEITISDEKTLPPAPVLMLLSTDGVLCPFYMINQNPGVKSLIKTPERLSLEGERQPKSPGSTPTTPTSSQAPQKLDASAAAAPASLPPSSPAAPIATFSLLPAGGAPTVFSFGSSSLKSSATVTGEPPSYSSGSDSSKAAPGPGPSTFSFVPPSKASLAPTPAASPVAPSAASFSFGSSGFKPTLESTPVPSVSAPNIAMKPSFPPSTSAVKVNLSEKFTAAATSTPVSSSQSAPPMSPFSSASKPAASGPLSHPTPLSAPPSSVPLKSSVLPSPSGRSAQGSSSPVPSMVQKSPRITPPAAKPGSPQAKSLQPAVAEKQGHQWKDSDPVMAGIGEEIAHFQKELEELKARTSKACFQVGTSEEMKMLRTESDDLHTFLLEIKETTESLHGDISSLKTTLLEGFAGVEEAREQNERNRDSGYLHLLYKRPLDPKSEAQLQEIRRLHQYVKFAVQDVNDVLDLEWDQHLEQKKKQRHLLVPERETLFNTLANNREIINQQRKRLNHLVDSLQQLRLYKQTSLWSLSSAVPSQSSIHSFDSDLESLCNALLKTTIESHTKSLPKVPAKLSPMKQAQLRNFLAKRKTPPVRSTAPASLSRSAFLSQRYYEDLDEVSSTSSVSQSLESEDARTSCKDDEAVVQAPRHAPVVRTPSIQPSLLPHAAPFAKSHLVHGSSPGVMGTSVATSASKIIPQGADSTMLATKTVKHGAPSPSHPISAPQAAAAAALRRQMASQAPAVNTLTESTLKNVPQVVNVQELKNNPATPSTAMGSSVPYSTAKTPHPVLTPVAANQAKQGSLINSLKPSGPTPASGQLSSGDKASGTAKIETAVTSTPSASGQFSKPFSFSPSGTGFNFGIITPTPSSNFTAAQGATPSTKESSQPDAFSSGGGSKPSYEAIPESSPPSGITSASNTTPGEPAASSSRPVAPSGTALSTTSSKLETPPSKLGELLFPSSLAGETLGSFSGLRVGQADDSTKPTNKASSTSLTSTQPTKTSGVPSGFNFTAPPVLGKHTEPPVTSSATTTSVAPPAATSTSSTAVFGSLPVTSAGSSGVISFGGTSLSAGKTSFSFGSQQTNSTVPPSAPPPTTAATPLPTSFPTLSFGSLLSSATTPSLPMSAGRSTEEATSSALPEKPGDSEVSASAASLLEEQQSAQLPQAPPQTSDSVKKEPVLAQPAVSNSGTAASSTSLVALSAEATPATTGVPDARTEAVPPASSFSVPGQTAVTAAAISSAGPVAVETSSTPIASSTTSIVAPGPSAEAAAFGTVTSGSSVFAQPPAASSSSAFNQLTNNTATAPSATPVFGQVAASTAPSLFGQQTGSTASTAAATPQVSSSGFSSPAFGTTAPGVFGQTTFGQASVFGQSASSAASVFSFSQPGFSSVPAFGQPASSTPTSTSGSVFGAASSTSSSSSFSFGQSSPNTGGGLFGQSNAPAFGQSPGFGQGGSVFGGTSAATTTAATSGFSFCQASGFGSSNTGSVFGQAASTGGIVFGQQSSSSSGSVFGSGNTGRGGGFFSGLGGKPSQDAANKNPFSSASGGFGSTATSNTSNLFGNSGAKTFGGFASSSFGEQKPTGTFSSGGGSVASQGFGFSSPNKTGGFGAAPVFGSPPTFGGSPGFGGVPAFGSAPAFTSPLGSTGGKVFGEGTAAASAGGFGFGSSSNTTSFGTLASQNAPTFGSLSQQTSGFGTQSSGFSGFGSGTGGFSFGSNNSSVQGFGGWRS

`COc1ccc2c(c1)CCCN2C(=O)CCl` [compound 2] was tested, and the “isoTOP-ABPP reactivity P35658_C728 NUP214” value [1]; 231 was 3.9, the “isoTOP-ABPP reactivity Q13158_C98 FADD” value [2]; 231 was 20.0 and the “isoTOP-ABPP reactivity Q13630_C116 TSTA3” value [3]; 231 was 20.0. The “isoTOP-ABPP reactivity Q86YH6_C71 PDSS2” value [4]; 231 was 20.0, the “isoTOP-ABPP reactivity Q96F86_C413 EDC3” value [5]; 231 was 20.0 and the “isoTOP-ABPP reactivity Q9Y570_C381 PPME1” value [6]; 231 was 12.6.

In the case of `O=C(CCl)N1CCN(S(=O)(=O)c2ccccc2F)CC1` [compound 10], the “isoTOP-ABPP ratio P07858_C211” value [7] is reported as 7.4, the “isoTOP-ABPP ratio P22061_C102” value [8]; 231 is reported as 1.6 and the “isoTOP-ABPP ratio P35658_C728” value [1]; 231 is reported as 20.0. For the same compound, the “isoTOP-ABPP ratio, cysteine Q13630_C116” value [3]; 231 was 20.0, the “isoTOP-ABPP ratio, cysteine Q6XZF7_C691” value [9]; 231 was 20.0 and the “isoTOP-ABPP ratio, cysteine Q6XZF7_C691” value ([9]; ramos) was 20.0. The “isoTOP-ABPP ratio Q86YH6_C71” value [4]; 231 was 20.0, the “isoTOP-ABPP ratio Q8NBS9_C350” value ([10]; ramos) was 1.4 and the “isoTOP-ABPP ratio Q96F86_C413” value [5]; 231 was 20.0. For the same compound, the “isoTOP-ABPP ratio Q96F86_C413” value ([5]; ramos) was 20.0, the “isoTOP-ABPP ratio, cysteine Q9Y3D2_C105” value [11] was 20.0 and the “isoTOP-ABPP ratio, cysteine Q9Y570_C381” value [6]; 231 was 4.7. The “isoTOP-ABPP ratio Q9Y6G9_C51” value [12]; 231 was 4.9.

With `O=C(CCl)NCCc1c[nH]c2ccccc12` [compound 13] the “isoTOP-ABPP ratio P07858_C211” value [7] was 1.6, the “isoTOP-ABPP ratio P22061_C102” value [8]; 231 was 0.9 and the “isoTOP-ABPP ratio P35658_C728” value [1]; 231 was 1.0. For the same compound, the “isoTOP-ABPP ratio, cysteine Q13158_C98” value [2]; 231 was 1.6, the “isoTOP-ABPP ratio, cysteine Q13630_C116” value ([3]; ramos) was 1.2 and the “isoTOP-ABPP ratio, cysteine Q6XZF7_C691” value [9]; 231 was 1.6. The “isoTOP-ABPP ratio Q86YH6_C71” value [4]; 231 was 1.2, the “isoTOP-ABPP ratio Q86YH6_C71” value ([4]; ramos) was 1.8 and the “isoTOP-ABPP ratio Q8NBS9_C350” value [10]; 231 was 1.3. For the same compound, the “isoTOP-ABPP ratio Q96F86_C413” value [5]; 231 was 1.6, the “isoTOP-ABPP ratio Q96F86_C413” value ([5]; ramos) was 2.0 and the “isoTOP-ABPP ratio, cysteine Q9Y570_C381” value [6]; 231 was 0.9. For the same compound, the “isoTOP-ABPP ratio Q9Y6G9_C51” value ([12]; ramos) was 1.5.

In the case of `CC(C)CCOCCNC(=O)CCl` [compound 27], the “isoTOP-ABPP ratio P07858_C211” value [7] is reported as 0.8, the “isoTOP-ABPP ratio P22061_” value [8]; 231 is reported as 2.2 and the “isoTOP-ABPP ratio Q13158_C98” value [2]; 231 is reported as 0.6. For the same compound, the “isoTOP-ABPP ratio Q86YH6_C71” value [4]; 231 was 1.3, the “isoTOP-ABPP ratio Q8NBS9_C350” value [10]; 231 was 1.1 and the “isoTOP-ABPP ratio Q96F86_C413” value [5]; 231 was 0.7. The “isoTOP-ABPP ratio Q9Y3D2_C105” value [11] was 1.5 and the “isoTOP-ABPP ratio Q9Y6G9_C51” value [12]; 231 was 0.6.

`O=C(CCl)N1CCN(CC(=O)N2CCOCC2)CC1` [compound 29] was tested, and the “isoTOP-ABPP ratio P22061_” value ([8]; ramos) was 1.2, the “isoTOP-ABPP ratio P35658_C728” value ([1]; ramos) was 1.7 and the “isoTOP-ABPP ratio Q13158_C98” value ([2]; ramos) was 1.3. For the same compound, the “isoTOP-ABPP ratio Q86YH6_C71” value ([4]; ramos) was 1.1, the “isoTOP-ABPP ratio Q96F86_C413” value ([5]; ramos) was 1.9 and the “isoTOP-ABPP ratio Q9Y570_C381” value ([6]; ramos) was 1.2.

`C=CC(=O)N(Cc1cccnc1)c1cc(C(F)(F)F)cc(C(F)(F)F)c1` [compound 31] was tested, and the “isoTOP-ABPP ratio P35658_C728” value [1]; 231 was 0.7, the “isoTOP-ABPP ratio Q13158_C98” value [2]; 231 was 0.9 and the “isoTOP-ABPP ratio Q6XZF7_C691” value [9]; 231 was 2.3. For the same compound, the “isoTOP-ABPP ratio Q8NBS9_C350” value [10]; 231 was 0.8, the “isoTOP-ABPP ratio Q96F86_C413” value ([5]; ramos) was 1.3 and the “isoTOP-ABPP ratio Q9Y6G9_C51” value ([12]; ramos) was 1.6.

In the case of `C=CC(=O)Nc1cc(F)c(N2CCN(C(=O)OC(C)(C)C)CC2)c(F)c1` [compound 38], the “isoTOP-ABPP ratio P07858_C211” value [7] is reported as 1.8, the “isoTOP-ABPP ratio Q13158_C98” value [2]; 231 is reported as 1.5 and the “isoTOP-ABPP ratio Q9Y3D2_C105” value [11] is reported as 1.6.
